Ends that are not written are not given here.
Experiments:
[1] = tested on: methicillin resistant Staphylococcus aureus (MRSA) biofilm; settings: approximate peptide concentration […] (around 3 μg/ml); compared to untreated samples
Method: Methods of assessment of anti-biofilm activity—Biofilm formation was initially analyzed using a static abiotic solid surface assay as described elsewhere (de la Fuente-Nunez et al., 2012). Dilutions (1/100) of overnight cultures were incubated in BM2 biofilm-adjusted medium [62 mM potassium phosphate buffer (pH 7), 7 mM (NH4)2SO4, 2 mM MgSO4, 10 μM FeSO4, 0.4% (wt/vol) glucose, 0.5% (wt/vol) Casamino Acids], or a nutrient medium such as Luria Broth, in polypropylene microtiter plates (Falcon, United States) in the absence (control) or presence of peptide. Peptide was added at time zero (prior to adding the diluted, overnight cultures) in varying concentrations, and the decrease in biofilm formation was recorded at 22-46 h for most bacteria. Planktonic cells were removed, biofilm cells adhering to the side of the tubes were stained with crystal violet, and absorbance at 595 nm was measured using a microtiter plate reader (Bio-Tek Instruments Inc., United States). Some peptides were screened against two Gram negative organisms, P. aeruginosa and K. pneumoniae using a Bioflux apparatus (AutoMate Scientific, Berkeley, Calif.; http://www.autom8.com/bioflux_biofilm.html), which allows for the high-throughput, real-time analysis of biofilms.

[2] = tested on: human peripheral blood mononuclear cells (MCP-1); test: SPOT-synthesized derivative screen: production of chemokine MCP-1; format: cell-based; settings: Table 12, No LPS, human PBMC, peptide at ~18-24 μM; for MCP1: background subtracted 139 (HH2 derivatives), 170 (1018 derivatives), 242 (1002 and hybrid peptides) pg/ml
Method: Venous blood (20 ml) from healthy volunteers was collected in Vacutainer® collection tubes containing sodium heparin as an anticoagulant (Becton Dickinson, Mississauga, ON) in accordance with UBC ethical approval and guidelines. Blood was diluted 1:1 with complete RPMI 1640 medium and separated by centrifugation over a Ficoll-Paque® Plus (Amersham Biosciences, Piscataway, N.J., USA) density gradient. White blood cells were isolated from the buffy coat, washed twice in RPMI 1640 complete medium, and the number of peripheral blood mononuclear cells (PBMC) was determined by Trypan blue exclusion. PBMC (5×10^5) were seeded into 12-well tissue culture dishes (Falcon; Becton Dickinson) at 0.75 to 1×10^6 cells/ml at 37° C. in 5% CO2. The above conditions were chosen to mimic conditions for circulating blood monocytes entering tissues at the site of infection via extravasation.
Following incubation of the cells under various treatment regimens, the tissue culture supernatants were centrifuged at 1000×g for 5 min, then at 10,000×g for 2 min to obtain cell-free samples. Supernatants were aliquoted and then stored at −20° C. prior to assay for various chemokines by capture ELISA (eBioscience and BioSource International Inc., CA, USA respectively)

[3] = tested on: LPS-stimulated human peripheral blood mononuclear cells (IL1-β); format: cell-based; settings: Table 12, cells stimulated with 10 ng/ml LPS; for IL1β Production: LPS alone 1313 (HH2 derivatives), 1927 (1018 derivatives), 2455 (1002 and hybrid peptides) pg/ml
Method: LPS from P. aeruginosa strain H103 was highly purified free of proteins and lipids using the Darveau-Hancock method. Briefly, P. aeruginosa was grown overnight in LB broth at 37° C. Cells were collected and washed and the isolated LPS pellets were extracted with a 2:1 chloroform:methanol solution to remove contaminating lipids. Purified LPS samples were quantitated using an assay for the specific sugar 2-keto-3-deoxyoctosonic acid (KDO assay) and then resuspended in endotoxin-free water (Sigma-Aldrich).

## HH2-W2: single substituted HH2 peptide (VWLRIRVAVIRA-NH2)
[1]
  % Biofilm inhibition: 70%
[2]
  Fold increase in MCP1 cf. untreated cells: 12
  MCP1: 1802 pg/mL
[3]
  Fold change in IL1β relative to no peptide LPS stimulated cells: 0.98
  IL1β Production: 1293 pg/mL

## 1018-K5: single substituted 1018 peptide (VRLIKAVRIWRR-NH2) [Peptide 1018-K5]
[1]
  % Biofilm inhibition: 29%
[2]
  Fold increase in MCP1 cf. untreated cells: 0.9
  MCP1: -10 pg/mL
[3]
  Fold change in IL1β relative to no peptide LPS stimulated cells: 1.31
  IL1β Production: 1722 pg/mL

## 1002-W9: single substituted 1002 peptide (VQRWLIVWWIRK-NH2) [Peptide 1002-W9]
[1]
  % Biofilm inhibition: 73%
[2]
  Fold increase in MCP1 cf. untreated cells: 1.0
  MCP1: 12.0 pg/mL
[3]
  Fold change in IL1β relative to no peptide LPS stimulated cells: 0.05
  IL1β Production: 127 pg/mL

## HH2-K2: single substituted HH2 peptide (VKLRIRVAVIRA-NH2)
[1]
  % Biofilm inhibition: 69%
[2]
  Fold increase in MCP1 cf. untreated cells: 7.9
  MCP1: 1168 pg/mL
[3]
  Fold change in IL1β relative to no peptide LPS stimulated cells: 0.71
  IL1β Production: 937 pg/mL

## 1002-W12: single substituted 1002 peptide (VQRWLIVWRIRW-NH2) [Peptide 1002-W12]
[1]
  % Biofilm inhibition: 71%
[2]
  Fold increase in MCP1 cf. untreated cells: 2.7
  MCP1: 412.5 pg/mL
[3]
  Fold change in IL1β relative to no peptide LPS stimulated cells: 0.05
  IL1β Production: 127 pg/mL

## HH2-Q4: single substituted HH2 peptide (VQLQIRVAVIRA-NH2)
[1]
  % Biofilm inhibition: 45%
[2]
  Fold increase in MCP1 cf. untreated cells: 2.4
  MCP1: 246 pg/mL
[3]
  Fold change in IL1β relative to no peptide LPS stimulated cells: 0.62
  IL1β Production: 817 pg/mL

## 1002-G1: single substituted 1002 peptide (GQRWLIVWRIRK-NH2) [Peptide 1002-G1]
[1]
  % Biofilm inhibition: 68%
[2]
  Fold increase in MCP1 cf. untreated cells: 14.8
  MCP1: 3335.7 pg/mL
[3]
  Fold change in IL1β relative to no peptide LPS stimulated cells: 0.05
  IL1β Production: 127 pg/mL

## 1018-I11: single substituted 1018 peptide (VRLIVAVRIWIR-NH2) [Peptide 1018-I11]
[1]
  % Biofilm inhibition: 16%
[2]
  Fold increase in MCP1 cf. untreated cells: 1.5
  MCP1: 83 pg/mL
[3]
  Fold change in IL1β relative to no peptide LPS stimulated cells: 1.35
  IL1β Production: 1775 pg/mL

## 1002-R5: single substituted 1002 peptide (VQRWRIVWRIRK-NH2) [Peptide 1002-R5]
[1]
  % Biofilm inhibition: 62%
[2]
  Fold increase in MCP1 cf. untreated cells: 0.9
  MCP1: -36.2 pg/mL
[3]
  Fold change in IL1β relative to no peptide LPS stimulated cells: 0.14
  IL1β Production: 349 pg/mL

## HH2-I4: single substituted HH2 peptide (VQLIIRVAVIRA-NH2)
[1]
  % Biofilm inhibition: 47%
[2]
  Fold increase in MCP1 cf. untreated cells: 11
  MCP1: 1669 pg/mL
[3]
  Fold change in IL1β relative to no peptide LPS stimulated cells: 0.58
  IL1β Production: 760 pg/mL

## 1018-Q8: single substituted 1018 peptide (VRLIVAVQIWRR-NH2) [Peptide 1018-Q8]
[1]
  % Biofilm inhibition: 51%
[2]
  Fold increase in MCP1 cf. untreated cells: 0.4
  MCP1: -104 pg/mL
[3]
  Fold change in IL1β relative to no peptide LPS stimulated cells: 0.10
  IL1β Production: 127 pg/mL

## 1002-V5: single substituted 1002 peptide (VQRWVIVWRIRK-NH2) [Peptide 1002-V5]
[1]
  % Biofilm inhibition: 75%
[2]
  Fold increase in MCP1 cf. untreated cells: 38.2
  MCP1: 9022.6 pg/mL
[3]
  Fold change in IL1β relative to no peptide LPS stimulated cells: 0.18
  IL1β Production: 440 pg/mL

## 1002-V11: single substituted 1002 peptide (VQRWLIVWRIVK-NH2) [Peptide 1002-V11]
[1]
  % Biofilm inhibition: 68%
[2]
  Fold increase in MCP1 cf. untreated cells: 3.2
  MCP1: 541.2 pg/mL
[3]
  Fold change in IL1β relative to no peptide LPS stimulated cells: 0.05
  IL1β Production: 127 pg/mL

## 1018-R7: single substituted 1018 peptide (VRLIVARRIWRR-NH2) [Peptide 1018-R7]
[1]
  % Biofilm inhibition: 0%
[2]
  Fold increase in MCP1 cf. untreated cells: 1.9
  MCP1: 161 pg/mL
[3]
  Fold change in IL1β relative to no peptide LPS stimulated cells: 1.68
  IL1β Production: 2201 pg/mL

## 1018-G9: single substituted 1018 peptide (VRLIVAVRGWRR-NH2) [Peptide 1018-G9]
[1]
  % Biofilm inhibition: 67%
[2]
  Fold increase in MCP1 cf. untreated cells: 0.9
  MCP1: -17 pg/mL
[3]
  Fold change in IL1β relative to no peptide LPS stimulated cells: 1.13
  IL1β Production: 1481 pg/mL

## 1018-V8: single substituted 1018 peptide (VRLIVAVVIWRR-NH2) [Peptide 1018-V8]
[1]
  % Biofilm inhibition: 34%
[2]
  Fold increase in MCP1 cf. untreated cells: 1.2
  MCP1: 29 pg/mL
[3]
  Fold change in IL1β relative to no peptide LPS stimulated cells: 0.35
  IL1β Production: 463 pg/mL

## 1018-G2: single substituted 1018 peptide (VGLIVAVRIWRR-NH2) [Peptide 1018-G2]
[1]
  % Biofilm inhibition: 59%
[2]
  Fold increase in MCP1 cf. untreated cells: 2.6
  MCP1: 267 pg/mL
[3]
  Fold change in IL1β relative to no peptide LPS stimulated cells: 0.10
  IL1β Production: 127 pg/mL

## 1018-Q10: single substituted 1018 peptide (VRLIVAVRIQRR-NH2) [Peptide 1018-Q10]
[1]
  % Biofilm inhibition: 38%
[2]
  Fold increase in MCP1 cf. untreated cells: 0.7
  MCP1: -54 pg/mL
[3]
  Fold change in IL1β relative to no peptide LPS stimulated cells: 0.12
  IL1β Production: 154 pg/mL

## 1002-K5: single substituted 1002 peptide (VQRWKIVWRIRK-NH2) [Peptide 1002-K5]
[1]
  % Biofilm inhibition: 79%
[2]
  Fold increase in MCP1 cf. untreated cells: 3.4
  MCP1: 592.6 pg/mL
[3]
  Fold change in IL1β relative to no peptide LPS stimulated cells: 0.14
  IL1β Production: 339 pg/mL

## HH2-L9: single substituted HH2 peptide (VQLRIRVALIRA-NH2)
[1]
  % Biofilm inhibition: 65%
[2]
  Fold increase in MCP1 cf. untreated cells: 10
  MCP1: 1527 pg/mL
[3]
  Fold change in IL1β relative to no peptide LPS stimulated cells: 1.04
  IL1β Production: 1359 pg/mL

## 1002-L1: single substituted 1002 peptide (LQRWLIVWRIRK-NH2) [Peptide 1002-L1]
[1]
  % Biofilm inhibition: 69%
[2]
  Fold increase in MCP1 cf. untreated cells: 13.3
  MCP1: 2988.6 pg/mL
[3]
  Fold change in IL1β relative to no peptide LPS stimulated cells: 0.05
  IL1β Production: 127 pg/mL

## HH2-W8: single substituted HH2 peptide (VQLRIRVWVIRA-NH2)
[1]
  % Biofilm inhibition: 75%
[2]
  Fold increase in MCP1 cf. untreated cells: 81
  MCP1: 13556 pg/mL
[3]
  Fold change in IL1β relative to no peptide LPS stimulated cells: 0.42
  IL1β Production: 553 pg/mL

## HH2-I1: single substituted HH2 peptide (IQLRIRVAVIRA-NH2)
[1]
  % Biofilm inhibition: 73%
[2]
  Fold increase in MCP1 cf. untreated cells: 51
  MCP1: 8573 pg/mL
[3]
  Fold change in IL1β relative to no peptide LPS stimulated cells: 0.84
  IL1β Production: 1103 pg/mL

## 1002-A5: single substituted 1002 peptide (VQRWAIVWRIRK-NH2) [Peptide 1002-A5]
[1]
  % Biofilm inhibition: 70%
[2]
  Fold increase in MCP1 cf. untreated cells: 0.9
  MCP1: -36.2 pg/mL
[3]
  Fold change in IL1β relative to no peptide LPS stimulated cells: 0.07
  IL1β Production: 182 pg/mL

## 1002-K3: single substituted 1002 peptide (VQKWLIVWRIRK-NH2) [Peptide 1002-K3]
[1]
  % Biofilm inhibition: 61%
[2]
  Fold increase in MCP1 cf. untreated cells: 3.4
  MCP1: 576.2 pg/mL
[3]
  Fold change in IL1β relative to no peptide LPS stimulated cells: 0.06
  IL1β Production: 137 pg/mL

Source: patent publication US20190315823A1, “SMALL CATIONIC ANTI-BIOFILM AND IDR PEPTIDES” (priority 2013, published 2019)
